In brackets after ≈: the same amount, converted by molar mass. Where two headings read alike, the source gives them in different places. Some results are limits rather than exact numbers.

The text below walks through data of patent US20110288052A1, “NOVEL COMPOUNDS, PHARMACEUTICAL COMPOSITIONS CONTAINING SAME, AND METHODS OF USE FOR SAME” (priority 2008, published 2011).

The target of one data set is viral HIV protease (Human immunodeficiency virus type 1 group M subtype B, UniProt P04585). The note with it: cited from earlier work.
Another data set concerns OVCAR3 cells. Nature of the data set: XTT cytotoxicity assay, OVCAR3 (OV). It counts as cell-based. The conditions noted are these: Homo sapiens. The procedure:
(§1) XTT Cytotoxicity Assay The XTT assay is a non-radioactive alternative for the [^51Cr] release cytotoxicity assay. XTT is a tetrazolium salt that is reduced to a formazan dye only by metabolically active, viable cells. The reduction of XTT is measured spectrophotometrically as OD490-OD650. To measure the cytotoxicity of specific compounds against cancer cells, 9×10^3 MCF-7 human breast cancer cells (shown in the tables as “(M)”), obtained from the American Type Culture Collection are plated per well in 96 well plates in DMEM medium with 10% fetal bovine serum, insulin, penicillin, and streptomycin. Following overnight culture at 37° C. and 5% CO2, the compounds to be tested, dissolved in DMSO, are added to the wells in 1 μl volume at the following concentrations: 80, 40, 20, 10, 5, 2.5, 1.25, and 0.625 μg/ml in triplicate. Additional concentrations are tested if required. 1 μl of DMSO is added to triplicate wells are the vehicle control. C75 is run at 40, 20, […], and 5 μg/ml in triplicate as positive controls. After 72 hours of incubation, cells are incubated for 4 hours with the XTT reagent as per manufacturer's instructions (Cell Proliferation Kit II (XTT) Roche). Plates are read at OD490 and OD650 on a Molecular Devices SpectraMax Plus Spectrophotometer. Three wells containing the XTT reagent without cells serve as the plate blank. XTT data are reported as OD490-OD650. Averages and standard error of the mean are computed using SOFTmax Pro software (Molecular Dynamics). The IC50 for the compounds is defined as the concentration of drug leading to a 50% reduction in OD490-OD650 compared to controls. The OD490-OD650 are computed by the SOFTmax PRO software (Molecular Devices) for each compound concentration. IC50 is calculated by linear regression, plotting the FAS activity as percent of control versus drug concentrations. Linear regression, best-fit line, r^2, and 95% confidence intervals are determined using Prism Version 3.0 (Graph Pad Software). The test was also run against OVCAR3 cells (“OV”), and HCT116 cells (“H”).
In general terms: Formazan colour is commonly taken as a measure of viable cells.

A further data set relates to HCT116 cells. Nature of the data set: XTT cytotoxicity assay, HCT116 (H). It counts as cell-based. The conditions noted are these: Homo sapiens, HCT-116. Here is the method: as §1
The test system of data set [1] is MCF-7 human breast cancer cells (fatty acid oxidation pathway activity). Description: Fatty acid oxidation ([14C]palmitate to acid soluble products). Type of data set: cell-based. The procedure: Measurement of Fatty Acid Oxidation and Determination of SC150 of Compounds This assay measures the degradation of [^14C]palmitate into acid soluble products and is a measure of fatty acid oxidation pathway activity in vitro. It is utilized to measure fatty acid oxidation in vitro. MCF-7 human breast cancer cells cultured as above, are plated at 2.5×10^5 cells per well in 24-well plates. Following overnight incubation, the compounds to be tested, solubilized in DMSO, are added at […], 0.39, 1.56, 6.25, 25, and 100 μg/ml in triplicate, with lower concentrations tested if necessary. DMSO is added to triplicate wells for a vehicle control. C75 is run at 5 and 10 μg/ml in triplicate as positive controls. After 1 hour of incubation, medium is removed 100 uM of [^14C] palmitate in cyclodextran and 200 uM carnitine in serum free medium (250 μl volume) is added to each well. After 30 minutes of additional incubation, the reaction is stopped by addition of 2.6N HClO4. Contents of each well are transferred to 1.5 ml Eppendorf tubes and 4N KOH is added. The tubes are incubated for 30 minutes at 60° C. 1 M NaAcetate and 3N H2SO4 is added to each tube and vortexed. The tubes are centrifuged at 1000 rpm for 5 minutes at RT. 250 μl of the supernatant is transferred to a 2 ml eppendorf tube. To each tube is added: 938 μl of chloroform:methanol (1:1), 468 μl chloroform and 281 μl of deionized water. The tubes are vortexed and centrifuged at 1000 rpm for 5 minutes at RT. 750 μl of the upper phase is transferred into a scintillation vial 5 ml of scintillant is added and vials are counted for 1 minute for ^14C. The Beckman Scintillation counter calculates the average cpm values for triplicates. The SC150 for the compounds is defined as the concentration of drug leading to a 150% increase in production of acid soluble products of [^14C] palmitate as compared to untreated controls. This is determined by plotting the average cpm for each inhibitor concentration tested, performing linear regression and computing the best-fit line, r^2 values, and 95% confidence intervals. The average cpm values are computed by the Beckman scintillation counter (Model LS6500) for each compound concentration. Computation of linear regression, best-fit line, r^2, and 95% confidence intervals are calculated using Prism Version 3.0 (Graph Pad Software). If a compound fails to achieve this 150% threshold it is considered negative. The maximum value achieved is also reported (FAO Max).

A short description of the next data set: Weight loss screen. Type of data set: in vivo, Balb/C mice. The note with it: 60 mg/ml (so in the source), day 1. The procedure: Weight Loss Screen Balb/C mice (Jackson Labs) are utilized for the initial weight loss screening. Animals are housed in temperature and 12 hour day/night cycle rooms and fed mouse chow and water ad lib. Three mice are utilized for each compound tested with vehicle controls in triplicate per experiment. For the experiments, mice are housed separately for each compound tested three mice to a cage. Compounds are diluted in DMSO at 10 mg/ml and mice are injected intraperitoneally with 60 mg/kg in approximately 100 μl of DMSO or with vehicle alone. Mice are observed and weighed daily; average weights and standard errors are computed with Excel (Microsoft). The experiment continues until treated animals reach their pretreatment weights.

Data set [2] can be described thus: Solubility problem noted during the assays. It counts as physicochemical. The conditions noted are these: read-out: Sol Prob (solubility problem at concentration).
Data set [3] relates to MCF-7 human breast cancer cells. Nature of the data set: XTT cytotoxicity assay, MCF-7 (M). Type of data set: cell-based. The note with it: MCF7, MCF-7, 72 hours. Here is the method: XTT Cytotoxicity Assay The XTT assay is a non-radioactive alternative for the [^51Cr] release cytotoxicity assay. XTT is a tetrazolium salt that is reduced to a formazan dye only by metabolically active, viable cells. The reduction of XTT is measured spectrophotometrically as OD490-OD650. To measure the cytotoxicity of specific compounds against cancer cells, 9×10^3 MCF-7 human breast cancer cells (shown in the tables as “(M)”), obtained from the American Type Culture Collection are plated per well in 96 well plates in DMEM medium with 10% fetal bovine serum, insulin, penicillin, and streptomycin. Following overnight culture at 37° C. and 5% CO2, the compounds to be tested, dissolved in DMSO, are added to the wells in 1 μl volume at the following concentrations: 80, 40, 20, 10, 5, 2.5, 1.25, and 0.625 μg/ml in triplicate. Additional concentrations are tested if required. 1 μl of DMSO is added to triplicate wells are the vehicle control. C75 is run at 40, 20, […], and 5 μg/ml in triplicate as positive controls. After 72 hours of incubation, cells are incubated for 4 hours with the XTT reagent as per manufacturer's instructions (Cell Proliferation Kit II (XTT) Roche). Plates are read at OD490 and OD650 on a Molecular Devices SpectraMax Plus Spectrophotometer. Three wells containing the XTT reagent without cells serve as the plate blank. XTT data are reported as OD490-OD650. Averages and standard error of the mean are computed using SOFTmax Pro software (Molecular Dynamics). The IC50 for the compounds is defined as the concentration of drug leading to a 50% reduction in OD490-OD650 compared to controls. The OD490-OD650 are computed by the SOFTmax PRO software (Molecular Devices) for each compound concentration. IC50 is calculated by linear regression, plotting the FAS activity as percent of control versus drug concentrations. Linear regression, best-fit line, r^2, and 95% confidence intervals are determined using Prism Version 3.0 (Graph Pad Software).

Data set [4] relates to MCF-7 human breast cancer cells (fatty acid synthesis pathway activity). Description: [14C]acetate incorporation into total lipids. The conditions noted are these: MCF7, [14C]acetate incorporation into lipids. Type of data set: cell-based. Here is the method: Measurement of [^14C]acetate Incorporation into Total Lipids and Determination of IC50 of Compounds. This assay measures the incorporation of [^14C]acetate into total lipids and is a measure of fatty acid synthesis pathway activity in vitro. It is utilized to measure inhibition of fatty acid synthesis in vitro.
MCF-7 human breast cancer cells cultured as above, are plated at 5×10^4 cells per well in 24-well plates. Following overnight incubation, the compounds to be tested, solubilized in DMSO, are added at 5, 10, and 20 μg/ml in triplicate, with lower concentrations tested if necessary. DMSO is added to triplicate wells for a vehicle control. C75 is run at 5 and 10 μg/ml in triplicate as positive controls. After 4 hours of incubation, 0.25 μCi of [^14C]acetate (10 μl volume) is added to each well.
After 2 hours of additional incubation, medium is aspirated from the wells and 800 μl of chloroform:methanol (2:1) and 700 μl of 4 mM MgCl2 is added to each well. Contents of each well are transferred to 1.5 Eppendorf tubes, and spun at full-speed for 2 minutes in a high-speed Eppendorf Microcentrifuge 5415D. After removal of the aqueous (upper) layer, an additional 700 μl of chloroform:methanol (2:1) and 500 μl of 4 mM MgCl2 are added to each tube and then centrifuged for 1 minutes as above. The aqueous layer is removed with a Pasteur pipette and discarded. An additional 400 μl of chloroform:methanol (2:1) and 200 μl of 4 mM MgCl2 are added to each tube, then centrifuged and aqueous layer is discarded. The lower (organic) phase is transferred into a scintillation vial and dried at 40° C. under N2 gas. Once dried, 3 ml of scintillant (APB #NBC5104) is added and vials are counted for ^14C. The Beckman Scintillation counter calculates the average cpm values for triplicates.
The IC50 for the compounds is defined as the concentration of drug leading to a 50% reduction in [^14C]acetate incorporation into lipids compared to controls. This is determined by plotting the average cpm for each inhibitor concentration tested, performing linear regression and computing the best-fit line, r^2 values, and 95% confidence intervals. The average cpm values are computed by the Beckman scintillation counter (Model LS6500) for each compound concentration. Computation of linear regression, best-fit line, r^2, and 95% confidence intervals are calculated using Prism Version 3.0 (Graph Pad Software).

A further data set concerns Raji cells. The note with it: cited from earlier work.
The next data set concerns Hela cells. The conditions noted are these: cited from earlier work.
Data set [5] addresses rat liver acyl-CoA synthetase. The conditions noted are these: read-out: 50% inhibition of rat liver acyl-CoA synthetase (converted); cited from earlier work.
Another data set has as its system Vero cells. The note with it: cited from earlier work.

`C/C=C/C/C=C/CCC(=O)[C@H]1O[C@H]1C(N)=O` [cerulenin, (2S,3R)-2,3-epoxy-4-oxo-7,10 dodecadienoyl amide]: the “concentration at which viral HIV protease is inhibited” value on viral HIV protease was 5 mg/mL.
In the case of `CCCCCCCCC1(C)SC(=O)C=C1OCC(=O)Nc1ccc(F)cc1` (stereo not shown), the IC50 stood at 11.1 mg/L (≈ 28.2 µM) in the data set on OVCAR3 cells (OVCAR-3, unit given as ml); 5.6 mg/L (≈ 14.2 µM) in the data set with HCT116 cells; 6.5 mg/L (≈ 16.5 µM) in data set [3]. The Emax at 1.56 µg/mL in data set [1] (Homo sapiens, MCF7, at 1.56 μg/ml, read-out: FAO Max) worked out at 106%. Further, the “FAO SC 150” value in [1] (concentration leading to 150% of control acid soluble products, Neg = threshold not reached) is recorded as “Neg”. For the same compound, in “Weight loss screen”, the “Weight Loss” value is 60 mg/ml: 2.4% (day 1). Further, the solubility in data set [2] (noted under the 14C column, unit inferred) was 0.08 mg/mL (≈ 203 µM).
As for `CCCCCCCCC1(C)SC(=O)C=C1OCC(=O)Nc1ccc(S(N)(=O)=O)cc1` (stereo not shown), the IC50 in data set [4] turned out to be 26.3 mg/L (≈ 57.9 µM); in the data set on OVCAR3 cells (OVCAR-3) it was 13.4 mg/L (≈ 29.5 µM); in the data set with HCT116 cells, 8.7 mg/L (≈ 19.1 µM); in data set [3], 7 mg/L (≈ 15.4 µM). In addition, the solubility in data set [2] is 0.08 mg/mL (≈ 176 µM).
Taken in the same sequence, the figures for `CCCCCCCCC1(C)SC(=O)C=C1OCC(=O)Nc1ccc(C#N)cc1` (stereo not shown) were greater than 80 mg/L, 6.6 mg/L (≈ 16.5 µM), 5.3 mg/L (≈ 13.2 µM), 3.8 mg/L (≈ 9.49 µM) and 0.08 mg/mL (≈ 200 µM).
Take `CCCC=CCC=CC=CC=NN=NO` [Triacsin C, 1-hydroxy-3-(E,E,E-2′,4′,7′-undecatrienylidine) triazene]: the “growth inhibition in Raji cells” value with Raji cells is given as “growth inhibition”. In addition, the “growth inhibition of Hela cells” value in the data set with Hela cells is listed as “inhibit growth”. Further, in data set [5], the IC50 was 8.7 µM. Moreover, the “growth inhibition of Vero cells” value in the data set with Vero cells was “inhibit growth”.
